Assay results: patent US20070025995A1, “Taxoid derivative covalently linked to tumor-specific antibody and a method for preparing the same” (priority 2005, published 2007)

Tested on: tubulin
Test: Tubulin polymerization activity (HTS-Tubulin Polymerization Assay Kit, OD340)
Type: biochemical
Settings: absorbance at 340 nm over reaction time; FIG. 1; paclitaxel control 3.7 mg/mL aqueous solution
Description: The anticancer agent of the present invention has the structure of paclitaxel or docetaxel, and thus it was conjectured that the compound manifests its anticancer effects by inducing overproduction of tubulin in the same manner as paclitaxel or docetaxel. However, this compound blocks tubulin polymerization in the same manner as vinblastine. The tubulin polymerization activity assay was, as shown in Test Example 1, determined by measuring the absorbance at 340 nm and measuring tubulin polymerization activity.
Tubulin polymerization activity was measured using the HTS-Tubulin Polymerization Assay Kit (manufactured by Cytoskeleton) with respect to both the reaction solution of the present invention obtained in Example 1 and 3.7 mg/mL aqueous solution of paclitaxel used as a control.
The horizontal axis in the figure denotes reaction time (min) and the vertical axis represents tubulin polymerization activity (OD340).

## CC(=O)O[C@H]1C(=O)[C@@]2(C)[C@H]([C@H](OC(=O)c3ccccc3)[C@]3(O)C[C@H](OC(=O)[C@H](O)[C@@H](NC(=O)c4ccccc4)c4ccccc4)C(C)=C1C3(C)C)[C@]1(OC(C)=O)CO[C@@H]1C[C@@H]2O [paclitaxel, Paclitaxel]
  tubulin polymerization activity (OD340): tubulin polymerization was stimulated
